# Measurements taken from patent US20240100001A1, “DENATONIUM SALT FOR USE IN PREVENTING, PREVENTING PROGRESSION AND TREATING FATTY LIVER DISEASES” (AARDVARK THERAPEUTICS INC., priority 2021, published 2024).
# Columns and labels:
# [1] = system: AMLN diet-induced NASH mice; test: Example 1: one-year DA dosing of AMLN diet-induced NASH mice (prevention study); format: in vivo
# Procedure: This example provides the results of a 52 week study of lower dose DA (30 mg/kg per day QD by gavage) in mice where NASH conditions were induced by diet. The data for an animal-induced NASH of such a long duration (48-52 weeks) can be interpreted to support methods for preventing fatty liver diseases, including NASH, and methods of slowing progression of fatty liver diseases, including NASH. Male C57BL/6 mice (4 weeks old at study start) were maintained on a high-fat “Western diet” (AMLN diet) (DIO-NASH) (D09100301, Research Diet, USA) (40% fat (18% trans-fat), 40% carbohydrates (20% fructose) and 2% cholesterol, 40 kcal % fat, 20 kcal % fructose, and 2% cholesterol) following arrival, inducing non-alcoholic steatohepatitis (NASH). Following acclimation, Groups 1 and 2 (n=22 each) were dosed by intragastric oral gavage (PO) with (respectively) vehicle (distilled water) or denatonium acetate (DA) at 30 mg/kg. Doses were administered once daily (QD) for a full year (through Day 366) at dose volumes of 1 mL/kg. Body weights and clinical observations were monitored throughout the study. Blood was collected from fasted animals at baseline (Day −1) and regularly during the study (Weeks 4, 12, 24, and 48), processed to serum or plasma, and evaluated for metabolic parameters [glucose, insulin, hemoglobin A1c (HbA1c), and glucagon-like peptides 1 and 2 (GLP-1 and -2)], selected serum chemistry parameters [Ala aminotransferase (ALT), Asp aminotransferase (AST), albumin (ALB), and total bile acids (BA)], and multiple cytokines (32 total). After 52 weeks of QD dosing, fasted animals were bled and euthanized, and livers were collected and weighed. Terminal serum samples were assessed for low- and high-density cholesterol (LDL and HDL, respectively) and triglycerides (TGA); liver was assessed for total cholesterol (TC), TGA, and free fatty acids (FFA).
# Male C57BL/6 mice (n=44) were purchased from Taconic Biosciences, Inc. (Rensselaer, NY), as 4-week-old animals. Following arrival, animals were weighed using an electronic balance (Ohaus SCOUT® PRO, Parsippany, NJ), given a clinical examination to ensure that the mice were in good condition, and group-housed (up to 4 per cage). The animals were maintained in HEPA-filtered static cages using SaniChip bedding 7090A (Harlan Teklad, Hayward, CA). Animal room controls were set to maintain temperature and relative humidity at 22° C.±4° C. and 50% 20%, respectively. Housing rooms were on a 12:12 light/dark cycle. Animals were acclimated on site for at least 3 days prior to entry onto the study. Following arrival and throughout the study, mice were provided with ad libitum access to water (via water bottles) and (except as noted for fasting) to a high-fat “Western diet” (AMLN diet, No. D09100301; Research Diets, New Brunswick, NJ) containing 40 kcal % fat, 20 kcal % fructose, and 2% cholesterol.
# DA was formulated at 30 mg/mL in DW. Solid DA was weighed and added to the appropriate volume of DW; the solution was mixed well and inspected visually to ensure that there was no precipitate and to verify that the test article was completely solubilized. The DA dosing solution was prepared freshly each week and stored refrigerated at 4° C. between use in daily dose administrations. On Day −1 (i.e., one day before the start of dosing); and on Weeks 4, 12, 24, and 48 (i.e., after one, 3, 6, and 12 months of dosing), blood and fecal samples were collected from fasted animals. • Fecal samples (4 pellets per cage of 3-4 mice) were collected directly collected from the floor of each cage, divided into two aliquots, and stored at −80° C. for future microbiota and microbiome analysis. Results of those analyses are not included in this report. • Blood (100 μL/animal) was collected from each animal via the submandibular route. All blood samples were assessed for blood glucose levels and then processed to both serum and plasma. […]
# [2] = system: AMLN-diet induced NASH mice; format: in vivo
# Procedure: This example provides the results obtained from a second in vivo mouse model of fatty liver disease treatment to investigate the therapeutic effect of DA on the treatment of NASH versus positive control semaglutide (a GLP-1 agonist marketed drug for lowering HbA1c). The differences in this study, from the preventive model in Example 1, were that a higher dose of DA (75 mg/kg) was used versus 30 mg/kg, dosing was twice daily (BID versus QD in the Example 1 study), a positive control semaglutide was used, a different mouse strain (B6 mice) was used, and the animals were already adults (23 weeks old in Example 2 versus 4 weeks old in Example 1) when the study began because the animals were already fed an AMLN diet for 17 weeks prior to the study being initiated. The study dose began at 75 mg/kg BID.
# The study included 3 groups of 10 mice each, (A) vehicle control with distilled water by gavage BID, (B) DA by gavage BID, and (C) semaglutide […] sc QD. Body weights and changes were measured 3× per week. Serum metabolic markers (blood glucose, blood insulin, HbA1c, HDL, LDL triglycerides and bile acids) were measured at beginning of dosing (baseline) and end of study. At the end of the study, histopathology of liver samples and serum levels of inflammatory biomarkers (IL-6, TNFα, CK-18 and TGF-β) were evaluated. Histopathology was performed blindly with a scoring scale according to NAFLD Activity Score and Fibrosis Score according to Table 4.
# [3] = 23.1 mg/kg BID DA; cited from earlier work
# [4] = 30 mg/kg PO QD, one year (48 weeks in Table 2), blinded histopathologic review
# [5] = 30 mg/kg PO QD, only at Week 24
# [6] = after one year of QD dosing, 30 mg/kg
# [7] = after one year of daily dosing, 30 mg/kg
# [8] = DA 75 then 50 mg/kg BID, 12 weeks
smiles,measurement,setting,value
"CC(=O)[O-].CC[N+](CC)(CC(=O)Nc1c(C)cccc1C)Cc1ccccc1 [DA, denatonium acetate]",levels of the other (n=24) assessed cytokines vs vehicle,[1]; 30 mg/kg PO QD,Significant treatment-related differences were not seen
same,animals found dead during the study,"[1]; 30 mg/kg PO QD, n=22, Weeks 12 and 49, unclear if test article related",two
same,fibrosis on histopathology,[1]; [4],improved/abrogated
same,steatosis on histopathology,[1]; [4],significantly improved
same,total fibrosis score,"[1]; 30 mg/kg PO QD, one year, 1.52 vs. 0.58, p<0.0001",0.58
same,relative body weights vs vehicle,"[1]; 30 mg/kg PO QD, Day 4",lower
same,IP-10 blood level vs vehicle,"[1]; 30 mg/kg PO QD, Week 4 only",Statistically significant attenuation
same,MIP-1B blood level vs vehicle,"[1]; 30 mg/kg PO QD, Week 4 only",Statistically significant attenuation
same,IL-13 blood level vs vehicle,"[1]; 30 mg/kg PO QD, Week 12 only",Statistically significant attenuation
same,MIP-1a blood level vs vehicle,"[1]; 30 mg/kg PO QD, Week 24 only",Statistically significant attenuation
same,Serum BA levels vs vehicle,"[1]; 30 mg/kg PO QD, Week 24 only",significantly attenuated
same,fasting blood glucose levels vs vehicle,"[1]; 30 mg/kg PO QD, Week 24 only",significantly lower
same,GLP-2 levels vs vehicle,"[1]; 30 mg/kg PO QD, Week 48",did not differ significantly
same,IL-6 blood level vs vehicle,"[1]; 30 mg/kg PO QD, Week 48 only",Statistically significant attenuation
same,IL-9 blood level vs vehicle,"[1]; 30 mg/kg PO QD, Week 48 only",Statistically significant attenuation
same,KC blood level vs vehicle,"[1]; 30 mg/kg PO QD, Week 48 only",Statistically significant attenuation
same,insulin levels vs vehicle,"[1]; 30 mg/kg PO QD, Weeks 4 and 12, not subsequently",significantly elevated
same,MIG blood level vs vehicle,"[1]; 30 mg/kg PO QD, Weeks 4 and 48 only",Statistically significant attenuation
same,HbA1c levels vs vehicle,"[1]; 30 mg/kg PO QD, Weeks 12 and 48, not Week 24",significantly attenuated
same,Serum ALT activity levels vs vehicle,"[1]; 30 mg/kg PO QD, Weeks 24 and 48, not earlier",significantly attenuated
same,Serum ALB levels vs vehicle,"[1]; 30 mg/kg PO QD, any assessed time point",did not differ significantly
same,body weight increase from baseline,"[1]; 30 mg/kg PO QD, during the first 5 months (both groups)",~150%
same,body weights (absolute or relative) vs vehicle,"[1]; 30 mg/kg PO QD, during the study except Day 4 relative",did not differ in a statistically significant manner
same,body weights mean increase from baseline,"[1]; 30 mg/kg PO QD, during the year-long study (both groups)",approximately 200%
same,GLP-1 levels vs vehicle,[1]; [5],significantly attenuated
same,Serum AST activity levels vs vehicle,[1]; [5],significantly attenuated
same,Lowered serum levels of ALT,"[1]; 30 mg/kg, PO, QD for 48 weeks","ALT (−43%),"
same,Lowered serum levels of AST,"[1]; 30 mg/kg, PO, QD for 48 weeks","AST (−9.5%),"
same,Lowered serum levels of HbA1c,"[1]; 30 mg/kg, PO, QD for 48 weeks","HbA1c (−6.7%),"
same,Lowered serum levels of bile acid,"[1]; 30 mg/kg, PO, QD for 48 weeks",acid (−16.2%)
same,Lowered serum levels of fasting glucose,"[1]; 30 mg/kg, PO, QD for 48 weeks","glucose (−9%),"
same,decreased liver weight of animals,"[1]; 30 mg/kg, PO, QD for 48 weeks",(by 10%)
same,serum levels of GLP-1 (Table 2 summary),"[1]; 30 mg/kg, PO, QD for 48 weeks",Increased
same,serum levels of GLP-2 (Table 2 summary),"[1]; 30 mg/kg, PO, QD for 48 weeks",Increased
same,serum levels of inflammatory markers,"[1]; 30 mg/kg, PO, QD for 48 weeks",Lowered serum
same,absolute liver weight at necropsy vs vehicle,[1]; [6],not absolute liver weight was attenuated
same,relative (body weight-normalized) liver weight at necropsy vs vehicle,[1]; [6],attenuated
same,Liver TGA levels vs vehicle,[1]; [7],significantly attenuated
same,Serum TGA levels vs vehicle,[1]; [7],significantly attenuated
same,liver FFA levels vs vehicle,[1]; [7],"not those of TC or FFA, were significantly attenuated"
same,liver TC levels vs vehicle,[1]; [7],"not those of TC or FFA, were significantly attenuated"
same,serum HDL levels vs vehicle,[1]; [7],"not those of HDL or LDL, were significantly attenuated"
same,serum LDL levels vs vehicle,[1]; [7],"not those of HDL or LDL, were significantly attenuated"
same,"adverse effects on survival, body weight, or clinical signs","[1]; mouse, in vivo, po, 30 mg/kg",did not appear to have adverse effects
same,body weight,[2]; [8],remarkable effect
same,body weight change,[2]; [8],remarkable effect
same,liver weight vs vehicle,[2]; [8],significantly decreased
same,liver/body weight ratio vs vehicle,[2]; [8],significantly decreased
same,NAFLD Activity Score,"[2]; blinded histopathologic review, DA 75 then 50 mg/kg BID, 12 weeks",significantly improved
same,ALT levels vs vehicle control,[2]; end of the study,significantly decreased
same,AST levels vs vehicle control,[2]; end of the study,significantly decreased
same,CK-18 levels vs vehicle control,[2]; end of the study,significantly decreased
same,high density lipoproteins (HDL),[2]; end of the study,significantly decreased
same,low density lipoproteins (LDL),[2]; end of the study,significantly decreased
same,triglycerides (TG),[2]; end of the study,significantly decreased
same,weight gain,[3],significant reduction
